Results as given in patent US9247732B2, “Agrochemical formulations containing a compatibility agent” (priority 2011, dated 2016).

Experiment: Tank-mix compatibility test of dodine 400 SC with another pesticide or adjuvant
Assay type: physicochemical
Settings: dodine 400 SC 1.25 l/200 l water plus other pesticide or adjuvant, observed after mixing for 30 minutes
Protocol: Test protocols for evaluating the compatibility of pesticide active ingredients and adjuvants are readily available and known to a person skilled in the art. A method suitable for use in the present invention is as follows: fill a 250 ml beaker with 200 ml of well water (temperature 15-17° C., water hardness 8° dH corresponding to 80 mg calcium oxide/l). […] Add a magnetic stirrer to the beaker. Stir the suspension for approximately 5 minutes at a speed of rotation of 700 rotations per minute. Add a mixing partner, such as an adjuvant or second plant protection product to the suspension. Stir the suspension for an additional 15 minutes. Stop stirring when a total stirring time of 20 minutes is obtained. Let the suspension stand unstirred for a few minutes. Then check for any separation, sediment, crystallization or flocculation. Note down the results of the visual observation. Stir the suspension for a further 20 minutes. Stop the stirring. After 2 hours have lapsed assess the compatibility for a second time. Upon finishing the second observation, pour the whole suspension over a 100 μm sieve. Note down if residue is present on the sieve.
Tank-mixes comprising dodine without acetate were prepared. […] Mixing was stopped.
As a comparison, the same tank-mixes were prospered, this time comprising dodine with acetate (A′-E′). […] Mixing was stopped after 30 minutes.

[1] = with sodium acetate 0.36 kg/200 l

| Compound | Compatibility test [1] | Compatibility test (without compatibility agent) |
| --- | --- | --- |
| Cc1cc(C)nc(Nc2ccccc2)n1 [pyrimethanil, N-(4,6-dimethylpyrimidin-2-yl)aniline] | improved the compatibility | not possible due to incompatibility problems |
| CCC(C)(C)C(=O)OC1=C(c2ccc(Cl)cc2Cl)C(=O)OC12CCCCC2 [spirodiclofen] | improved the compatibility | not possible due to incompatibility problems |
| COc1cccc(C(=O)NN(C(=O)c2cc(C)cc(C)c2)C(C)(C)C)c1C [methoxyfenozide, benzoic acid, 3-methoxy-2-methyl-, 2-(3,5-dimethylbenzoyl)-2-(1,1-dimethylethyl)hydrazide] | improved the compatibility | not possible due to incompatibility problems |
